The numbers were not newly measured in US20240000727A1, “STABLE COATED SOLID PHARMACEUTICAL COMPOSITION OF AN OPIOID ANALGESIC AND AN ANTI-EPILEPTIC FOR PAIN” (LABORATORIOS SILANES S.A. DE C.V., priority 2020, published 2024), which cites them from elsewhere.

SMILES strings stand for the structures.

The series relates to moderate to severe postoperative pain. Conditions: intravenous or intramuscular; patients with moderate to severe postoperative pain.

Take `COc1cccc([C@@]2(O)CCCC[C@@H]2CN(C)C)c1` [tramadol, (1R,2R)-2-[(dimethylamino)methyl]-1-(3-methoxyphenyl)cyclohexan-1-ol]: the “Potency relative to nalbuphine” value was “one-fifth as potent” and the “Potency relative to pethidine (meperidine)” value is “equivalent”.
